# Measurements from ChEMBL document CHEMBL1141943, “Synthesis and antitubercular activity of 2-hydroxy-aminoalkyl derivatives of diaryloxy methano phenanthrenes” (2005).
# How the values were obtained:
# [1] = tested on: Mycobacterium tuberculosis; assay: Antitubercular activity against Mycobacterium tuberculosis H37Rv by agar microdilution technique; assay type: functional
# [2] = tested on: Mycobacterium tuberculosis; assay: Antitubercular activity against Mycobacterium tuberculosis H37Rv by standard BACTEC radiometric growth assay; assay type: functional
structure (smiles),measurement,setting,value
COc1ccc(C(c2ccc(OCC(O)CN3CCN(Cc4ccccc4)CC3)cc2)c2cc3ccccc3c3ccccc23)cc1 (stereo unspecified),MIC,[1],25 µg/mL
CCCCNCC(O)COc1ccc(C(c2ccc(OC)cc2)c2cc3ccccc3c3ccccc23)cc1 (stereo unspecified),MIC,[1],6.25 µg/mL
same,MIC,[2],6.25 µg/mL
OC(CNC1CCCCC1)COc1ccc(C(c2ccc(OCC(O)CNC3CCCCC3)cc2)c2cc3ccccc3c3ccccc23)cc1 (stereo unspecified),MIC,[1],6.25 µg/mL
same,MIC,[2],12.5 µg/mL
CCN(CC)CC(O)COc1ccc(C(c2ccc(OC)cc2)c2cc3ccccc3c3ccccc23)cc1 (stereo unspecified),MIC,[1],6.25 µg/mL
same,MIC,[2],6.25 µg/mL
COc1ccc(C(c2ccc(OCC(O)CNC3CC3)cc2)c2cc3ccccc3c3ccccc23)cc1 (stereo unspecified),MIC,[1],25 µg/mL
same,MIC,[2],25 µg/mL
COc1ccc(C(c2ccc(OCC3CO3)cc2)c2cc3ccccc3c3ccccc23)cc1 (stereo unspecified),MIC,[1],25 µg/mL
COc1ccc(C(c2ccc(OCC(O)CN3CCCCC3)cc2)c2cc3ccccc3c3ccccc23)cc1 (stereo unspecified),MIC,[1],12.5 µg/mL
same,MIC,[2],12.5 µg/mL
COc1ccc(C(c2ccc(OCC(O)CN3CCCC3)cc2)c2cc3ccccc3c3ccccc23)cc1 (stereo unspecified),MIC,[1],12.5 µg/mL
same,MIC,[2],12.5 µg/mL
CN1CCN(CC(O)COc2ccc(C(c3ccc(OCC(O)CN4CCN(C)CC4)cc3)c3cc4ccccc4c4ccccc34)cc2)CC1 (stereo unspecified),MIC,[1],12.5 µg/mL
same,MIC,[2],12.5 µg/mL
COc1ccc(C(c2ccc(OCC(O)CN3CCN(C)CC3)cc2)c2cc3ccccc3c3ccccc23)cc1 (stereo unspecified),MIC,[1],12.5 µg/mL
same,MIC,[2],12.5 µg/mL
COc1ccc(C(c2ccc(OCC(O)CN3CCOCC3)cc2)c2cc3ccccc3c3ccccc23)cc1 (stereo unspecified),MIC,[1],25 µg/mL
COc1ccc(C(c2ccc(OCC(O)CNC3CCCCC3)cc2)c2cc3ccccc3c3ccccc23)cc1 (stereo unspecified),MIC,[1],12.5 µg/mL
same,MIC,[2],6.25 µg/mL
OC(COc1ccc(C(c2ccc(OCC(O)CN3CCCCC3)cc2)c2cc3ccccc3c3ccccc23)cc1)CN1CCCCC1 (stereo unspecified),MIC,[1],6.25 µg/mL
same,MIC,[2],12.5 µg/mL
COc1ccc(C(c2ccc(OCC(O)CNC3CCCCCC3)cc2)c2cc3ccccc3c3ccccc23)cc1 (stereo unspecified),MIC,[1],3.12 µg/mL
same,MIC,[2],3.12 µg/mL
OC(COc1ccc(C(c2ccc(OCC(O)CN3CCCC3)cc2)c2cc3ccccc3c3ccccc23)cc1)CN1CCCC1 (stereo unspecified),MIC,[1],12.5 µg/mL
same,MIC,[2],12.5 µg/mL
NNC(=O)c1ccncc1 [ISONIAZID],MIC,[1],0.05 µg/mL
same,MIC,[2],0.025 µg/mL
CO[C@H]1/C=C/O[C@@]2(C)Oc3c(C)c(O)c4c(O)c(c(/C=N/N5CCN(C)CC5)c(O)c4c3C2=O)NC(=O)/C(C)=C\C=C\[C@H](C)[C@H](O)[C@@H](C)[C@@H](O)[C@@H](C)[C@H](OC(C)=O)[C@@H]1C [RIFAMPIN],MIC,[1],0.1 µg/mL
same,MIC,[2],0.2 µg/mL
